We go through 2 compounds from patent US10522239B2, “Small molecule binding pockets in nucleic acids” (Nymirum, Inc., priority 2012, dated 2019).

The assay has as its target pre-miR-122 loop. Briefly: NMR titration binding screen against pre-miR-122 loop. The arrangement: species or system human. As to conditions: NMR titration experiments. The text has this: The apical loop sequence of human pre-miR 122 RNA sequence was investigated as an example. Two base pairs at the 5′- and 3′-ends of the sequence were modified from the native pre-miR 122 sequence in order to stabilize the 24-mer stem loop construct for NMR studies (5′-[…]-3′) (SEQ ID NO: 2).
Because pre-miR-122 is cleaved near the helix-apical loop interface, the apical loop was targeted to identify binding pockets. […] Given the size and plasticity of the loop, it was hypothesized that the loop could assume different conformations to bind small molecules. To identify small molecule binding pockets, each of the 60 small molecules in Nymirum's small molecule library was screened against the pre-miR-122 loop using NMR titration experiments. Two small molecules, NC1404 (9-aminoacridine) and NC1444 (L-arg-p-nitroanilide), were identified to bind with Kds of 71.7±9.0 μM and 17.6±3.25 μM respectively (FIGS. 12A and 12B). Using the same procedure detailed for A-site, bound-state chemical shifts for NC1404 and NC1444 were measured, used to solve a bound-state pre-miR-122 structure and a binding pocket for each compound was identified (FIGS. 12A and 12B). […]

`Nc1c2ccccc2nc2ccccc12` [NC1404, 9-aminoacridine] showed a Kd of 71.7 ± 9 µM.
To `N=C(N)NCCC[C@H](N)C(=O)Nc1ccc([N+](=O)[O-])cc1` [NC1444, L-arg-p-nitroanilide] belongs 17.6 ± 3.25 µM.
